Experimental data: publication PMC8667925, “New 1,2,4-oxadiazole derivatives with positive mGlu4 receptor modulation activity and antipsychotic-like properties” (Journal of Enzyme Inhibition and Medicinal Chemistry, 2021)
“Also recorded” adds a separate entry of the source.

Legend:
mGlu4 receptor = target: T1, mGlu4 receptor (Homo sapiens, UniProt Q14833); assay: forskolin-stimulated cAMP assay, PAM mode (EC20 of L-Glu), T-REx 293 cells; type: cell-based; settings: for mGlu4 receptor PAM activity / EC50 / Emax: PAM mode; for mGlu4 receptor PAM activity / Emax: human mGlu4; for EC50: EC20 (3 µM) L-Glu, T-REx 293 cells expressing human mGlu4 receptor; for EC50 / Emax / Fold shift of L-Glu dose-response curve: SEM where given; for Emax: T-REx-293, read-out: GluMax; for Fold shift of L-Glu dose-response curve: in the presence of 10 µM of compound
T1 construct: mGlu4 receptor NM_000841, mGlu7 receptor NM_000844.2, and mGlu8 receptor NM_000845; expressed in transfected cells; host or cells: T-REx 293
T1 sequence (Q14833 33-912): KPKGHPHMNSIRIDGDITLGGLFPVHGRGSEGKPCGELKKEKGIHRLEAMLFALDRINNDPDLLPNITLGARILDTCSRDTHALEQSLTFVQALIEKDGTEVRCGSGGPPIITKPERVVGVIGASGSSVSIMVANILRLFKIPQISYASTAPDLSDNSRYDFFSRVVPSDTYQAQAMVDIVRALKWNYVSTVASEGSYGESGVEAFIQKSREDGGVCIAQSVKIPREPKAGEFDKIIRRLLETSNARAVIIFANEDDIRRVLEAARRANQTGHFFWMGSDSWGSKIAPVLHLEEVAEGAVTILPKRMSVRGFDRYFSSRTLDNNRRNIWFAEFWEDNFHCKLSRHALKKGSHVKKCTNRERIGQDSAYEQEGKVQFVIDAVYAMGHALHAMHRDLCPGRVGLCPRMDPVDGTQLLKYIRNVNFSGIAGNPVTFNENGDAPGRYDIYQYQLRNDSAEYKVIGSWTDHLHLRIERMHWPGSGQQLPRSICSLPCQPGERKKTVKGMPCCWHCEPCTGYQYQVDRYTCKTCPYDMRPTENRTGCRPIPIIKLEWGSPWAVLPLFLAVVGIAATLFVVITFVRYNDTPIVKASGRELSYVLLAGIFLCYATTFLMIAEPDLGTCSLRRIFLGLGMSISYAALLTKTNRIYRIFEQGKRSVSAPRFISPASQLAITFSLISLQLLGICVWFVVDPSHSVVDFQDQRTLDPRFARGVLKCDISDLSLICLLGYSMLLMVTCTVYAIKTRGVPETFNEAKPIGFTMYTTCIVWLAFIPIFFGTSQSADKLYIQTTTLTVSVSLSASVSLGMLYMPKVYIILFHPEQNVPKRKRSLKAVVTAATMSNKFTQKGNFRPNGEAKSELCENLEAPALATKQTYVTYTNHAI
Experimental: The activity of the compounds was assessed in vitro in a forskolin-stimulated cAMP assay in T-REx 293 cells expressing human mGlu4 receptors in the presence of an EC20 concentration of L-Glu; a PAM was identified if it potentiated cAMP inhibition by the Gi/o-dependent pathway of mGlu4 receptor activation; i.e. if it was able to produce a leftward shift in the potency of the endogenous agonist.
Determination of the intracellular cAMP through a homogeneous time-resolved fluorescence (HTRF) cAMP dynamic 2 kit from Cisbio (Codolet, France) was described previously by Chruścicka et al.[91]. Briefly, cells were grown in DMEM supplemented with 10% foetal bovine serum (FBS) (tetracycline free). Forty-eight hours before the experiments, mGlu receptor expression was induced by the addition of 0.75 µg/mL tetracycline. Twenty hours before the experiment, FBS and L-Glu were removed from the medium. Thereafter, the cells were scraped and centrifuged. A cell pellet was suspended in Hanks-HEPES (130 mM NaCl, 5.4 mM KCl, 1.8 mM CaCl2, 0.8 mM MgSO4, 0.9 mM NaH2PO4, 20 mM HEPES, and 3.25 mM glucose; pH 7.4). Then, the cell suspension was incubated in the presence of 10 µM forskolin (or 3 µM forskolin for mGlu7 receptor), the agonist L-glutamate and a compound for 5 min. Next, 10 µl of the cell suspension was mixed with 5 µl of cAMP-d2 conjugate and 5 µL of anti-cAMP cryptate conjugate. After 1 h of incubation at rt, the fluorescence at 620 nm and 665 nm was read (Tecan Infinite M1000). The results were calculated as the 665 nm/620 nm ratio multiplied by 10^4. Each sample was prepared in triplicate.
Statistical calculations were performed using GraphPad Prism 5.04 software (GraphPad Software, La Jolla, CA, USA). The curves were fitted to a 3-parametric logistic equation, allowing for the determination of EC50 values. Each data point was analysed in triplicate.

Albino Swiss mice [1] = assay: modified stress-induced hyperthermia (SIH) in singly housed mice; type: in vivo
Experimental: (§1) The compounds were dissolved in a small amount of 100% EtOH and then adjusted with 20% cyclodextrin, and the pH was adjusted to 6.0. The investigated compounds were administered intraperitoneally (i.p.) 60 min before the behavioural test. Control drugs i.e. diazepam, clozapine and imipramine (Sigma–Aldrich, St. Louis, USA), were administered i.p. 60 min before the behavioural test. Cyclodextrin (20%) was used as a vehicle. All solutions were prepared immediately prior to the experiments and were administered at a constant volume of 10 ml/kg.
The procedure for modified stress-induced hyperthermia was adapted from Van der Heyden[93] and based on the procedure introduced by Borsini[94]. Each experimental group consisted of eight to ten animals. The animals were housed individually in a 26 × 21 × 14 cm Macolon cage 24 h before testing. For this assay, the body temperature was measured for each mouse at t = 0 min (T1) and t = +15 min (T2). Albino Swiss mice were placed into a new cage immediately following T1, with the difference in temperature (T2−T1) used as the measure of stress-induced hyperthermia. […] A comparison between T1 in vehicle-treated mice and those administered the test compound was used to determine whether the agent affects body temperature alone. Diazepam (5 mg/kg) was used as the positive control. The rectal temperature was measured to the nearest 0.1 °C with a Physitemp Theralert thermometer, TH-5, Clifton NJ, USA, with the temperature sensor for mice, Type T, Copper-Constantan Thermocouple, Braintree Scientific Inc. The lubricated thermistor probe (2 mm diameter) was inserted 20 mm into the rectum. The mouse was held at the base of the tail during this determination, and the thermistor probe was left in place until a constant reading was obtained for 15 s. The effects of the investigated compounds on the SIH response were investigated after administration of the compounds at doses of 5, 10 and 20 mg/kg.

Albino Swiss mice [2] = assay: DOI-induced head twitch test (HTR); type: in vivo; settings: over the doses 2.5, 5 and 10 mg/kg i.p.; DOI 2.5 mg/kg i.p.
Experimental: as §1
The experiments were performed according to the procedure described in our previous studies[75]^,[80]. Briefly, to habituate mice to the experimental environment, each animal was transferred to a 12 cm (diameter) × 20 cm (height) glass cage lined with sawdust 30 min before treatment. Test compounds were administered intraperitoneally (i.p.) at doses of 2.5, 5, and 10 mg/kg body weight 60 min before the test was performed. The head twitch response (HTR) in mice was induced by DOI (2.5 mg/kg, i.p.). Immediately after treatment, the number of head twitches was counted during a 20 min session. Haloperidol and clozapine were used as the reference compounds at active doses of 0.2 and 5 mg/kg, respectively.

Compound: COc1ccc(-c2nc(-c3ccc(NC(=O)c4cccs4)cc3)no2)cc1 [Compound 17c]
- mGlu4 receptor PAM activity (mGlu4 receptor): not tolerated

Compound: O=C(Nc1ccc(-c2noc(-c3ccccc3Cl)n2)cc1)c1ccccn1 [Compound 17d]
- EC50 (mGlu4 receptor): 3.7 µM
- Emax (mGlu4 receptor): 116%
- Fold shift of L-Glu dose-response curve (mGlu4 receptor): 1.8

Compound: COc1cc(NC(=O)c2ccccn2)ccc1-c1noc(-c2ccccc2)n1 [Compound 33]
- EC50 (mGlu4 receptor): 1.83 µM
- Emax (mGlu4 receptor): 130%
- Fold shift of L-Glu dose-response curve (mGlu4 receptor): 5.3

Compound: COc1cc(NC(=O)c2ccccn2)ccc1-c1noc(-c2cccc(Cl)c2)n1 [Compound 35]
- EC50 (mGlu4 receptor): 5.3 µM
- Emax (mGlu4 receptor): 145%
- Fold shift of L-Glu dose-response curve (mGlu4 receptor): 2.2

Compound: COc1cc(NC(=O)c2ccccn2)ccc1-c1noc(-c2ccc(Cl)cc2)n1 [Compound 36]
- EC50 (mGlu4 receptor): 1.98 µM
- Emax (mGlu4 receptor): 157%
- Fold shift of L-Glu dose-response curve (mGlu4 receptor): 2.0

Compound: COc1cc(NC(=O)c2ccccn2)ccc1-c1noc(-c2ccc(F)cc2Cl)n1 [Compound 38]
- EC50 (mGlu4 receptor): 1.98 µM
- Emax (mGlu4 receptor): 124%
- Fold shift of L-Glu dose-response curve (mGlu4 receptor): 4.6

Compound: COc1cc(NC(=O)c2ncc(Cl)cc2F)ccc1-c1noc(-c2ccccc2Cl)n1 [Compound 40]
- mGlu4 receptor PAM activity (mGlu4 receptor): did not potentiate cAMP inhibition

Compound: COc1cc(NC(=O)c2cccc(Cl)n2)ccc1-c1noc(-c2ccccc2Cl)n1 [Compound 41]
- EC50 (mGlu4 receptor): 1.92 µM
- Emax (mGlu4 receptor): 115%
- Fold shift of L-Glu dose-response curve (mGlu4 receptor): 4.1

Compound: COc1ccc(Cl)c(C(=O)Nc2ccc(-c3noc(-c4ccccc4Cl)n3)c(OC)c2)n1 [Compound 42]
- mGlu4 receptor PAM activity (mGlu4 receptor): did not potentiate cAMP inhibition
- effect on SIH response (Albino Swiss mice [1]; over the doses 5, 10 and 20 mg/kg i.p.): None of the administered doses of compound 42 statistically affected the SIH; also recorded: failed to alter SIH
- effect on DOI-induced HTR (Albino Swiss mice [2]): failed to alter SIH and block DOI-induced HTR

Compound: COc1cc(NC(=O)c2cc(F)cc(F)n2)ccc1-c1noc(-c2ccccc2Cl)n1 [Compound 43]
- EC50 (mGlu4 receptor): 2.5 µM
- Emax (mGlu4 receptor): 134%
- Fold shift of L-Glu dose-response curve (mGlu4 receptor): 5.0

Compound: COc1cc(NC(=O)c2ccncn2)ccc1-c1noc(-c2ccccc2Cl)n1 [Compound 45]
- EC50 (mGlu4 receptor): 3.1 µM
- Emax (mGlu4 receptor): 118%
- Fold shift of L-Glu dose-response curve (mGlu4 receptor): 3.1

Compound: COc1cc(NC(=O)c2nccs2)ccc1-c1noc(-c2ccccc2Cl)n1 [Compound 46]
- EC50 (mGlu4 receptor): 2.2 µM
- Emax (mGlu4 receptor): 126%
- Fold shift of L-Glu dose-response curve (mGlu4 receptor): 3.6

Compound: COc1cc(NC(=O)c2cccc(F)n2)ccc1-c1noc(-c2ccccc2F)n1 [Compound 47]
- EC50 (mGlu4 receptor): 0.89 µM
- Emax (mGlu4 receptor): 121%
- Fold shift of L-Glu dose-response curve (mGlu4 receptor): 6.9

Compound: COc1cc(NC(=O)c2nc(Cl)ccc2Cl)ccc1-c1noc(-c2ccccc2F)n1 [Compound 48]
- mGlu4 receptor PAM activity (mGlu4 receptor): did not potentiate cAMP inhibition

Compound: O=C(Nc1ccc(-c2noc(-c3ccccc3Cl)n2)c(Cl)c1)c1cccc(F)n1 [Compound 50]
- mGlu4 receptor PAM activity (mGlu4 receptor): unable to modulate mGlu4 receptor activity

Compound: O=C(Nc1ccc(-c2noc(-c3ccccc3Cl)n2)c(Cl)c1)c1cccc(Cl)n1 [Compound 51]
- mGlu4 receptor PAM activity (mGlu4 receptor): unable to modulate mGlu4 receptor activity

Compound: O=C(Nc1ccc(-c2noc(-c3ccc(F)cc3Cl)n2)c(Cl)c1)c1ccccn1 [Compound 53]
- EC50 (mGlu4 receptor): 1.35 µM
- Emax (mGlu4 receptor): 119%
- Fold shift of L-Glu dose-response curve (mGlu4 receptor): 2.1

Compound: COc1ccccc1-c1nc(-c2ccc(NC(=O)c3ccccn3)cc2Cl)no1 [Compound 54]
- EC50 (mGlu4 receptor): 0.75 µM
- Emax (mGlu4 receptor): 111%
- Fold shift of L-Glu dose-response curve (mGlu4 receptor): 2.2

Compound: O=C(Nc1ccc(-c2noc(-c3ccccc3)n2)c(F)c1)c1ccccn1 [Compound 55]
- EC50 (mGlu4 receptor): 2.56 µM
- Emax (mGlu4 receptor): 127%
- Fold shift of L-Glu dose-response curve (mGlu4 receptor): 3.0

Compound: O=C(Nc1ccc(-c2noc(-c3ccccc3)n2)c(C(F)(F)F)c1)c1ccccn1 [Compound 59]
- EC50 (mGlu4 receptor): 0.74 µM
- Emax (mGlu4 receptor): 150%
- Fold shift of L-Glu dose-response curve (mGlu4 receptor): 7.6

Compound: Cc1cc(NC(=O)c2ccccn2)ccc1-c1noc(-c2ccccc2)n1 [Compound 61]
- EC50 (mGlu4 receptor): 1.65 µM
- Emax (mGlu4 receptor): 128%
- Fold shift of L-Glu dose-response curve (mGlu4 receptor): 5.1

Compound: CN1C(=O)CN=C(c2ccccc2)c2cc(Cl)ccc21 [diazepam, reference compound]
- effect on SIH response (Albino Swiss mice [1]; 5 mg/kg i.p., 60 min before test): significantly reduced SIH
